From ChEMBL document CHEMBL1157539, “Thousands of chemical starting points for antimalarial lead identification” (Nature, 2010)

Tested on: Plasmodium falciparum
Assay: GSK_TCMDC: Inhibition of Plasmodium falciparum 3D7 in whole erythrocytes, using parasite LDH activity as an index of growth.
Assay type: functional, organism-based
Settings: Plasmodium falciparum, 3D7

Compound	XC50 [nM]
O=[N+]([O-])c1cc(/C=N/Nc2nc3nonc3nc2Nc2ccc(F)cc2)c(Cl)cc1Cl	759
Oc1ccccc1CNCC(O)c1cccc(C(F)(F)F)c1 (stereo not given)	526
O=C(Nc1cccc(-c2cccc(-c3nc4cc(C(F)(F)F)ccc4[nH]3)c2)c1)c1cccnc1Cl	657
Cc1cc(F)ccc1[C@H]1CNCCN1C(=O)N(C)[C@@H](C)c1cc(C(F)(F)F)cc(C(F)(F)F)c1	232
Cc1cccc2nc(-c3ccc(-c4cccc(CN5CCCC(O)C5)c4)s3)[nH]c12 (stereo not given)	942
COc1ccc(-c2nc3c4ccccc4c4ccc(I)cc4c3[nH]2)cc1	1100
N#Cc1ccc(-n2cc(C(=O)Nc3ccc4c(c3)CCN(C3CCC3)CC4)c(C(F)(F)F)n2)cc1	290
Cc1ccc2[nH]c3ccccc3c(=O)c2c1	863
Clc1ccc(-c2nc3cc(-c4ccc5nc(-c6ccc(Cl)cc6)[nH]c5c4)ccc3[nH]2)cc1	241
Cc1cc(Nc2ncc3c(n2)N(C2CCC2)CC3)ccc1N1CCN(C)CC1	1190
COc1cc(/C=C/C(=O)NCC(CCNc2cc(=O)c3ccccc3[nH]2)NCc2cc(Br)cc(Br)c2)cc(OC)c1 (stereo not given)	915
Cc1ccc(NC(=O)NC2CCN(c3ccnc4ccccc34)C2)cc1 (stereo not given)	709
COc1ccc(-c2nc(NC(=O)CS(=O)(=O)c3ccc(F)cc3)sc2C)cc1	243
COc1cccc(CC(=O)N2CCC(n3c(C)nc4ccc(C)cc43)CC2)c1	114
CC1(C)CCCN(C(=O)Cc2ccc3c(c2)CCCC3)C1CN1CC=CC1 (stereo not given)	720
Nc1ncc(-c2cn[nH]c2)cc1-c1nc2cc(Cl)cnc2[nH]1	915
Cc1cc(=NN=Cc2ccccn2)c2cc(F)ccc2[nH]1	761
Cn1nccc1C(=O)NCCNCc1cccc(-c2csc(-c3nc4ccccc4[nH]3)c2)c1	840
CC(C)CCn1c(Sc2ccc(C#N)c([N+](=O)[O-])c2)nnc1-c1ccc(Cl)cc1	875
Nc1cccc(-c2ccc3ccnc(N)c3c2)c1	796
CCc1nc(N)nc(N)c1-c1ccc(C(C)C)cc1	834
CCCNc1nc(Nc2ccccc2C)nc2ccccc12	887
CCOc1cc(Br)c(C(C)NC(=O)c2ccccc2)cc1OCC (stereo not given)	861
CCOc1c(OC)ccc2c1CCN(CCN1CCC(CNC(=O)c3ccc(-c4ccc(C#N)cc4)cc3)CC1)C2	1080
COc1ccc(Cl)cc1NC(=O)Nc1ccc2c(c1)CCN(C1CCC1)CC2	814

Compound	XC50 [nM]
C=CCc1cc(Br)ccc1OCCCON1C(N)=NC(N)=NC1(C)C	3.2
NCc1ccc(CNCc2cccc(-c3ccc(-c4nc5ccccc5[nH]4)cc3)c2)cc1	717
Cc1noc(-c2ccc(NC[C@@H](C)NC[C@H](O)c3cccc(Cl)c3)cc2)n1	756
Cc1cccc(C(=O)NC(NC(=S)Nc2cc(Cl)ccc2Cl)C(Cl)(Cl)Cl)c1 (stereo not given)	1270
Fc1cccc(Cn2ncc3cc(Nc4ncnc5sc(C#Cc6ncc[nH]6)cc45)ccc32)c1	1800
CS(=O)(=O)c1ccccc1CNC(=O)c1ccc(-c2ccc(-c3nc4cc(C(F)(F)F)ccc4[nH]3)s2)cc1	236
CN(C)c1ccc(-c2ccc(C(=O)NC3CCN(Cc4ccccc4F)CC3)s2)cc1	1400
N#Cc1ccc(C=NNc2nc3ccccc3[nH]2)cc1	1000
Cc1cccn2c(=O)c3cc(C(=O)NC4CCCCC4)c(=N)n(CCCn4ccnc4)c3nc12	753
CCOC(=O)c1c(CNc2ccncc2)n(C)c2cc(Br)c(OC(C)=O)cc12	370
N#Cc1ccc(N[C@@H](CC2CCCCC2)C(=O)Nc2ccc(-c3ccccc3)cc2)c2ccccc12	597
O=C(NC1CCN(c2ncc(C(F)(F)F)cc2Cl)CC1)c1cccs1	897
O=C(c1cccs1)N(Cc1cccc(-c2ccc(CNC3CCCC3)cc2)c1)C1CCN(Cc2ccccc2)CC1	1130
CC(=O)c1ccc(NC(=O)Nc2ccc(N(C)c3ccnc(NC4CC4)n3)cc2)cc1	805
Cc1cc(O)c(-c2cccc(Oc3ccc(Cl)cc3)c2)c(C)n1	736
Cc1c(CNCCCNc2cc(=O)c3ccccc3[nH]2)sc(-c2ccco2)c1Br	1020
CC[C@H]1CN2CCc3cc(OC)c(OC)cc3[C@@H]2C[C@@H]1CC1=NCCc2c1[nH]c1ccc(OCc3ccccc3)cc21	772
O=C(CC1CCCC1)N(Cc1ccc(-c2ccc(CNC3Cc4ccccc4C3)cc2)cc1)CC1CCCCN1 (stereo not given)	1060
O=C(NOCc1ccccc1)c1cc(Cl)ccc1O	1100
Cc1cc(N[C@@H](Cc2ccccc2)C(=O)NCCCOC(C)C)nc(NCCc2ccc(F)cc2)n1	934
COc1ccc(C=NN=c2c3ccccc3[nH]c3ccccc23)c2ccccc12	1130
CC(C)NCc1cccc(-c2ccc(-c3nc4ccccc4[nH]3)cc2)c1	761
CN(C)CC1c2[nH]c3ccccc3c2CCN1C(=O)Nc1ccc(Cl)c(Cl)c1 (stereo not given)	1210
COc1cccc2c(Oc3ccccc3C)ccnc12	1230
CN(C)CCn1cc(C(=O)c2cc(Cl)ccc2O)cc1-c1nc2ccccc2c(=O)[nH]1	634

Compound	XC50 [nM]
COc1cccc(C2CCN(CCN3CCC(CNC(=O)c4ccc(-c5ccc(C(F)(F)F)cc5)cc4)CC3)CC2)c1	886
Cc1cc(N[C@@H](C)C(=O)Nc2ccccc2)nc(NCCc2ccc(F)cc2)n1	1110
c1ccc(Oc2ccc(Nc3ccnc(Nc4ccc(CN5CCOCC5)cc4)n3)cc2)cc1	941
Cc1cc2ccc(/C=C/C(=O)NC3CCC(CCN4CCc5ccc(C#N)cc5CC4)CC3)cc2[nH]1 (stereo not given)	941
CC(C)(Oc1c(C2CCN(CCCCNC(=O)c3ccc(-c4ccc(C#N)cc4)cc3)CC2)ccc2c1CCCC2)C(N)=O	696
COc1ccccc1CC1CCCN(C2CCC(NC(=O)c3cc4ccccc4[nH]3)CC2)C1 (stereo not given)	842
COc1cccc2c(NCc3ccccc3)nc(NCCCN3CCCCC3C)nc12 (stereo not given)	911
CC(CCNc1c2ccccc2nc2ccccc12)N1CCN(C)CC1 (stereo not given)	803
Cc1noc(C)c1-c1cccc(CNCc2ccc(-c3cccc(-c4nc5cc(C(F)(F)F)ccc5[nH]4)c3)cc2)c1	556
CC1=NN(c2ccc(C)c(C)c2)C(=O)C1=NNc1cccc(-c2cccc(NC(=O)OC(C)(C)C)c2)c1O	695
Cc1cc2nc(-c3ccc(C(=O)NCc4ccc(C(C)(C)C)cc4)cc3)[nH]c2cc1C	772
NC(=O)c1cccc(C(=O)Nc2cccc(-c3cccc(-c4nc5cc(F)ccc5[nH]4)c3)c2)c1	249
O=C(Nc1ccc(C(F)(F)F)cc1)NC1CCN(CCCCCNC(=O)C2CC2c2ccc(Cl)c(Cl)c2)CC1 (stereo not given)	626
COc1ccc2[nH]c(/C=C/c3cccc4ccc(C)nc34)nc2c1	792
CN1CCC(NCc2cccc(-c3ccc(S(=O)(=O)NCCN4CCCC4)s3)c2)CC1	928
COc1ccccc1-c1cccc(Nc2c(Nc3ccc(Cl)cc3)c(=O)c2=O)c1	878
c1ccc(CNc2cc(-c3ccccn3)nc(-c3ccccn3)n2)cc1	302
CS(=O)(=O)n1c(CN2CCN(c3ncc(C(F)(F)F)cc3Cl)CC2)nc2ccccc21	1060
COC(=O)C(NC(=O)c1ccc(-c2ccc(-c3nc4ccccc4[nH]3)s2)cc1)c1ccc(O)cc1 (stereo not given)	738
Cc1ccccc1C1CCN(C2CCC(NC(=O)/C=C/c3ccc4c(c3)OC(F)(F)O4)CC2)CC1 (stereo not given)	666
Cc1cccc2nc(-c3ccc(-c4ccc(NC(=O)CN5CCN(C)CC5)cc4)s3)[nH]c12	1020
Cc1nnc2c(NC(=O)NC3CCCC3)cc3ccc(-c4cccc(CN5CCN(C)CC5)c4)cc3n12	917
O=c1cc(NCCCNC2CCCc3c2ccc2ccccc32)[nH]c2ccccc12 (stereo not given)	824
CN1CCc2cc(O)c(NS(=O)(=O)c3ccc(-c4ccc(Cl)cc4)cc3)cc2CC1	767
COc1ccc(CNC(=O)NC2CCN(c3ccnc(Nc4ccc(F)cc4)n3)C2)cc1 (stereo not given)	842

Compound	XC50 [nM]
Nc1nc(N)c2c(ccc3c2ccn3C2C=CCCC2)n1 (stereo not given)	132
COc1ccc(OC)c2c1CC1NCC2c2c(OC)ccc(OC)c21 (stereo not given)	971
COc1ccc(CCNCC(O)c2cccc(Br)c2)c(Cl)c1OC (stereo not given)	1040
COc1ccc(C(=O)NCC(C)(C)c2nc(-c3ccc(Cl)c(O)c3)c(-c3ccncc3)[nH]2)cc1OCCN(C(C)C)C(C)C	643
CN1CCN(CCCN(Cc2cccc(-c3cccc(CNC4CCCC4)c3)c2)C(=O)/C=C/c2ccccc2)CC1	777
CCOc1cc(C(=O)NCCCN2CCCCC2C)ccc1-c1nc2cc(Cl)ccc2[nH]1 (stereo not given)	1070
CC(C)(C)CNCC(C)(C)c1nc(-c2ccc(Cl)c(O)c2)c(-c2ccncc2)[nH]1	601
CN(C)CCNCc1ccc(-c2ccc3c(Nc4ccc(F)cc4Cl)ccnc3c2)o1	145
CC(C)[C@@H](C(=O)NCc1cccc(C(F)(F)F)c1)N1C(=O)CCC1C(=O)Nc1ccc([N+](=O)[O-])cc1 (stereo not given in full)	934
C=CCN1C(=O)C(C(C)=O)=C(O)C1c1ccccc1 (stereo not given)	53.8
Cc1cc(SC(C)(C)C)cc2c(Cl)c(C(N)=O)cnc12	1090
CN1CCN(c2ccnc3cc4c(cc23)N(Cc2ccccc2)CC4)CC1	1140
Cc1ncccc1C(=O)Nc1cccc(-c2cccc(-c3nc4cccc(C)c4[nH]3)c2)c1	956
CCCCc1cc(NCc2ccncc2)nc(Nc2cccc(OC)c2)n1	742
COc1ccc2nccc(N3CCC(SCCNCc4ccc5c(n4)NC(=O)CS5)C3)c2n1 (stereo not given)	253
NC(=O)c1cc2nc(Nc3ccc(F)cc3)nc(Nc3ccc(S(N)(=O)=O)cc3)c2[nH]1	795
CCCC(C)Nc1nc(C)cc(N[C@@H](CC(C)C)C(=O)NCc2ccc(C)cc2)n1 (stereo not given in full)	1010
CN(CCCN(C)c1cc(NC(=O)c2ccc(F)cc2)ccn1)Cc1cccc(F)c1	1220
Cc1ccc(Cn2cnc3cc(C(=O)Nc4ccc(-c5cccc(CN(C)C)c5)cc4)ccc3c2=O)o1	625
CC(C)NCC(O)COc1ccc(Cc2ccc(OCC(O)CNC(C)C)cc2)cc1 (stereo not given)	654
CN(C)CCNc1ncnc2c1[nH]c1ccc(Br)cc12	742
COC(=O)C(Cc1ccccc1)NC(=O)NC1CCN(c2ccnc(Nc3ccc(F)cc3)n2)C1 (stereo not given)	1090
Fc1ccc(C=NN=c2cc[nH]c3ccc(C(F)(F)F)cc23)cc1	1100
COc1ccc(-c2ccc(NC(=O)c3ccc(C#N)cc3)cc2)cc1CNC(C)C	529
C(=C(c1cccs1)c1cccs1)c1ccc(CNC2CCN(Cc3ccccc3)CC2)cc1	161
